This passage reports IC50 results from patent publication US20240025863A1, “SOS1 PROTEIN DEGRADERS, PHARMACEUTICAL COMPOSITIONS THEREOF, AND THEIR THERAPEUTIC APPLICATIONS” (BioTheryX, Inc., priority 2020, published 2024).

Common to all, as to assay type: cell-based
Experiment [1] has as its system H358 cells (G12C). In words: Cell viability assay (CellTiter-Glo), H358 cells. The note with it: Homo sapiens, NCI-H358, 72 h; H358 cells, 3 days incubation, CellTiter-Glo luminescence; read-out: Inhibition of Cancerous Cells IC50 H358 (G12C). The procedure: (§1) H358, H23, SW48, and AsPC-1 cells were cultured in RPMI 1640 media supplemented with 10% fetal bovine serum, streptomycin, and penicillin. Lovo and SW480 cells were cultured in DMEM media supplemented with 10% fetal bovine serum, streptomycin, and penicillin. The cell lines were plated in their respective medium supplemented with 2.5% fetal bovine serum, streptomycin, and penicillin. All cell lines were plated in white walled 96-well plates at 2,000 cells/well or 384-well plates at 500 cells/well, except Lovo, which were plated at 4,000 or 1,000 cells/well, respectively. The cells were incubated in DMSO (control) or a compound for 3 days at 37° C. under 5% CO2. A CELLTITER-GLO® reagent (100 μL) was then added to each well. After a 10 min incubation with shaking, luminescence was measured using an ENVISION® multimode plate reader.

Experiment [2] relates to SW480 cells (G12V). In words: Cell viability assay (CellTiter-Glo), SW480 cells. The note with it: Homo sapiens, 72 h; SW480 cells, 3 days incubation, CellTiter-Glo luminescence; read-out: Inhibition of Cancerous Cells IC50 SW480 (G12V). The procedure: as §1
Experiment [3] has as its system Lovo cells (G13D). The experiment can be described thus: Cell viability assay (CellTiter-Glo), Lovo cells. The note with it: Homo sapiens, 72 h; Lovo cells, 3 days incubation, CellTiter-Glo luminescence; read-out: Inhibition of Cancerous Cells IC50 Lovo (G13D). The procedure: as §1
On the technique in general: In ATP-based viability assays light output follows the ATP content of the culture.

Experiment [4] concerns SW48 cells (wt). In words: Cell viability assay (CellTiter-Glo), SW48 cells. The note with it: Homo sapiens, 72 h; SW48 cells, 3 days incubation, CellTiter-Glo luminescence; read-out: Inhibition of Cancerous Cells IC50 SW48 (wt). The protocol:
as §1

As to `COc1cc2c(N[C@H](C)c3cccc(Br)c3)nc(C)nc2cc1OCCCCCCCCCCCOc1cc(-c2scnc2C)ccc1CNC(=O)[C@@H]1C[C@@H](O)CN1C(=O)[C@@H](NC(C)=O)C(C)(C)C` [Compound D13, (2S,4R)-1-((S)-2-Acetamido-3,3-dimethylbutanoyl)-N-(2-((11-((4-(((R)-1-(3-bromophenyl)ethyl)amino)-6-methoxy-2-methylquinazolin-7-yl)oxy)undecyl)oxy)-4-(4-methylthiazol-5-yl)benzyl)-4-hydroxypyrrolidine-2-carboxamide], the IC50 in experiment [1] was above 10000 nM; in experiment [2], 2900 nM; in experiment [3], 1600 nM; in experiment [4], above 10000 nM.
As for `COc1cc2c(N[C@H](C)c3cccc(Br)c3)nc(C)nc2cc1OCCCCCN1CCN(C(=O)CNc2cc(F)cc3c2CN(C2CCC(=O)NC2=O)C3=O)CC1` (stereo partly drawn) [Compound A55, 3-(4-((2-(4-(5-((4-(((R)-1-(3-Bromophenyl)ethyl)amino)-6-methoxy-2-methyl-quinazolin-7-yl)oxy)pentyl)piperazin-1-yl)-2-oxoethyl)amino)-6-fluoro-1-oxoisoindolin-2-yl)piperidine-2,6-dione], the half-inhibitory concentration (IC50) came to 2000 nM in experiment [1], 1800 nM in experiment [2], 640 nM in experiment [3] and 1400 nM in experiment [4].
Taken in the same sequence, the figures for `CNCc1ccccc1-c1csc([C@@H](C)Nc2nc(C)nc3c(CCCCCCCN4CCC(c5cc(F)cc6c5CN(C5CCC(=O)NC5=O)C6=O)CC4)c(OC)c(OC)cc23)c1` (stereo partly drawn) [Compound A54, 3-(4-(1-(7-(6,7-Dimethoxy-2-methyl-4-(((R)-1-(4-(2-((methylamino)methyl)-phenyl)thiophen-2-yl)ethyl)amino)quinazolin-8-yl)heptyl)piperidin-4-yl)-6-fluoro-1-oxoisoindolin-2-yl)piperidine-2,6-dione] were 360 nM, 240 nM, 130 nM and 200 nM.
In the case of `COc1cc2c(N[C@H](C)c3cccc(Br)c3)nc(C)nc2cc1OCCCCCN1CCC(c2cc3c(cc2F)C(=O)N(C2CCC(=O)NC2=O)C3)CC1` (stereo partly drawn) [Compound A21, 3-(5-(1-(5-((4-(((R)-1-(3-Bromophenyl)ethyl)amino)-6-methoxy-2-methyl-quinazolin-7-yl)oxy)pentyl)piperidin-4-yl)-6-fluoro-1-oxoisoindolin-2-yl)piperidine-2,6-dione], the IC50 in experiment [1] came out at 1100 nM; in experiment [2], 430 nM; in experiment [3], 380 nM; in experiment [4], 430 nM.
`COc1cc2c(N[C@H](C)c3cccc(Br)c3)nc(C)nc2cc1OCCCCCCCCCCCN1CCC(c2cc3c(cc2F)C(=O)N(C2CCC(=O)NC2=O)C3)CC1` (stereo partly drawn) [Compound A24, 3-(5-(1-(11-((4-(((R)-1-(3-Bromophenyl)ethyl)amino)-6-methoxy-2-methyl-quinazolin-7-yl)oxy)undecyl)piperidin-4-yl)-6-fluoro-1-oxoisoindolin-2-yl)piperidine-2,6-dione]: the 50% inhibitory concentration (IC50) was determined as 1200 nM in experiment [1], 550 nM in experiment [2], 400 nM in experiment [3] and 1300 nM in experiment [4].
Regarding `COc1cc2c(N[C@H](C)c3cccc(Br)c3)nc(C)nc2cc1OCCCCCCCCC(=O)NCc1cccc2c1CN(C1CCC(=O)NC1=O)C2=O` (stereo partly drawn) [Compound A6, 9-((4-(((R)-1-(3-bromophenyl)ethyl)amino)-6-methoxy-2-methylquinazolin-7-yl)oxy)-N-((2-(2,6-dioxopiperidin-3-yl)-1-oxoisoindolin-4-yl)methyl)nonanamide], the IC50 was 9900 nM in experiment [1], 8300 nM in experiment [2], 4900 nM in experiment [3] and above 10000 nM in experiment [4].
As to `COc1cc2c(N[C@H](C)c3cccc(Br)c3)nc(C)nc2cc1OCCCCCCNC(=O)[C@H](CC(C)C)NC(=O)[C@@H](O)[C@H](N)Cc1ccccc1` [Compound B6, (S)-2-((2S,3R)-3-amino-2-hydroxy-4-phenylbutanamido)-N-(6-((4-(((R)-1-(3-bromophenyl)ethyl)amino)-6-methoxy-2-methylquinazolin-7-yl)oxy)hexyl)-4-methylpentanamide], the IC50 was found to be 1200 nM in experiment [1], 660 nM in experiment [2], 1000 nM in experiment [3] and 680 nM in experiment [4].
Taken in the same sequence, the figures for `COc1cc2c(N[C@H](C)c3cccc(Br)c3)nc(C)nc2cc1OCCCCN1CCN(C(=O)COc2cc(F)cc3c2CN(C2CCC(=O)NC2=O)C3=O)CC1` (stereo partly drawn) [Compound A13, 3-(4-(2-(4-(4-((4-(((R)-1-(3-Bromophenyl)ethyl)amino)-6-methoxy-2-methyl-quinazolin-7-yl)oxy)butyl)piperazin-1-yl)-2-oxoethoxy)-6-fluoro-1-oxoisoindolin-2-yl)-piperidine-2,6-dione] were 7400 nM, 6600 nM, 9800 nM and 5900 nM.
For `COc1cc2c(N[C@H](C)c3cccc(Br)c3)nc(C)nc2cc1OCCCCCCCCCOc1cc(-c2scnc2C)ccc1CNC(=O)[C@@H]1C[C@@H](O)CN1C(=O)[C@@H](NC(C)=O)C(C)(C)C` [Compound D12, (2S,4R)-1-((S)-2-acetamido-3,3-dimethylbutanoyl)-N-(2-((9-((4-(((R)-1-(3-bromophenyl)ethyl)amino)-6-methoxy-2-methylquinazolin-7-yl)oxy)nonyl)oxy)-4-(4-methylthiazol-5-yl)benzyl)-4-hydroxypyrrolidine-2-carboxamide], the IC50 turned out to be 4300 nM in experiment [1], 3500 nM in experiment [2], 3100 nM in experiment [3] and 5400 nM in experiment [4].
In the case of `COc1ccc(C2=N[C@@H](c3ccc(Cl)cc3)[C@@H](c3ccc(Cl)cc3)N2C(=O)N2CCN(CC(=O)NCCCCCCCCOc3cc4nc(C)nc(N[C@H](C)c5cccc(Br)c5)c4cc3OC)CC2)c(OC(C)C)c1` [Compound C4, 2-(4-((4S,5R)-4,5-bis(4-chlorophenyl)-2-(2-isopropoxy-4-methoxyphenyl)-4,5-dihydro-1H-imidazole-1-carbonyl)piperazin-1-yl)-N-(8-((4-(((R)-1-(3-bromophenyl)ethyl)-amino)-6-methoxy-2-methylquinazolin-7-yl)oxy)octyl)acetamide], the IC50 in experiment [1], in experiment [2], in experiment [3] and in experiment [4] was above 10000 nM in each case.
In the case of `CNCc1ccccc1-c1csc([C@H](C)Nc2nc(C)nc3cc(OCCCCCCCN4CCC(c5cc(F)cc6c5CN(C5CCC(=O)NC5=O)C6=O)CC4)c(OC)cc23)c1` (stereo partly drawn) [Compound A16, 3-(6-Fluoro-4-(1-(7-((6-methoxy-2-methyl-4-(((S)-1-(4-(2-((methylamino)-methyl)phenyl)thiophen-2-yl)ethyl)amino)quinazolin-7-yl)oxy)heptyl)piperidin-4-yl)-1-oxoisoindolin-2-yl)piperidine-2,6-dione], the IC50 stood at 430 nM in experiment [1], 350 nM in experiment [2], 230 nM in experiment [3] and 340 nM in experiment [4].
Taken in the same sequence, the figures for `COc1cc2c(N[C@H](C)c3cccc(Br)c3)nc(C)nc2cc1OCCCCCN1CCN(C(=O)COc2cc3c(cc2F)C(=O)N(C2CCC(=O)NC2=O)C3)CC1` (stereo partly drawn) [Compound A31, 3-(5-(2-(4-(5-((4-(((R)-1-(3-Bromophenyl)ethyl)amino)-6-methoxy-2-methyl-quinazolin-7-yl)oxy)pentyl)piperazin-1-yl)-2-oxoethoxy)-6-fluoro-1-oxoisoindolin-2-yl)-piperidine-2,6-dione] were 4500 nM, 4900 nM, 230 nM and 510 nM.

In general, IC50 refers to the concentration that gives 50% inhibition.
